Experimental data as given in paper PMC12203428, “Discovery of Clonixeril as a Sub-Femtomolar Modulator of the Human STING Receptor” (ACS Central Science, 2025).
“Also recorded” adds a separate entry of the source.

Tests used:
[1] = test system: p-IRF3 in HEK293S cells (hSTING pathway); test: Phospho-IRF3 Western blot in HEK293S cells with diABZI3; format: cell-based, human; details: 100 fM compound, 100 nM diABZI3, preliminary
Procedure: HEK293T cells transfected with hSTINGWT cells were seeded in a 6-well plate in DMEM
(supplemented with 10% heat-inactivated fetal bovine serum, 1X Corning Penicillin-Streptomycin
solution and 0.01mg/mL Blasticidin). Upon reaching ~80% confluence, cells were pretreated with
varying concentrations of CXL in FBS-free DMEM for 2 hours. This was followed by treatment
with diABZI3 (100nM) for 1 hour. The cells were scraped, harvested by centrifugation at 1000 x g
for 3 mins. The resulting pellet is resuspended in 1X PBS with 1X Halt protease & phosphatase
inhibitor and 1% NP-40. Cell lysis was performed by probe sonication. The cell lysate is further
denatured in 1X SDS loading buffer by boiling for 10 mins and separated by SDS-PAGE (4-20%
gel). The separated proteins were electrically transferred to a PVDF membranes separately,
which was probed with primary (α-pIRF3, α-IRF3 & α-STING) and secondary (goat anti-rabbit IR
dye 680 & goat anti-mouse IR dye 800CW) antibodies. The blots were visualized using a LICOR
Image Analyzer. All the experiments were performed at least in duplicate.

[2] = test system: hSTING WT pathway (THP1 Dual KI-hSTING-R232 cells, IRF3 luciferase reporter)
Procedure: 2 Luciferase assay utilizing monocytic leukemia (THP-1) cells. Cells (Invivogen THP1 Dual KI-hSTING-R232; wild type) were analyzed for activation of the hSTING WT pathway via an IRF3 luciferase reporter. Luminescence is reported in relative luminescence units (RLU).
A study was performed to determine that five hundred thousand cells/mL was the optimal cell density. An optimization study was performed to determine the maximum DMSO percentage so as not to impact the viability of the cells. […] The chosen concentration was 4 μM. The cells were tested with lipofectamine and compared to wells prepared without lipofectamine.

SUMO-hSTING CTD [3] = molecular target: T1, SUMO-hSTING CTD (Homo sapiens, UniProt Q86WV6, H232R); test: Isothermal titration calorimetry; format: binding; parameters: human STING (amino acid 155–343) was synthesized and subcloned into pET28a vector; made in house; host or cells: E. coli BL21(DE3)
Excerpt: In order to further explore the interaction between CXL and hSTING CTD, we employed Isothermal calorimetry (ITC) to measure the heat evolved accompanying CXL’s effect on SUMO-hSTING^WT CTD. […] In Figure A, we show the ITC data we obtained. […]. […] In Figure B, we also find that the binding isotherm is far from steady state or equilibrium, and thus, we could not obtain reliable thermodynamic parameters. Nonetheless, a significant amount of heat was released in the process of CXL interacting with the hSTING CTD. On the other hand, we were most interested in ITC measurements taken at femtomolar concentrations, given the biophysical experiments and in cellulo studies already described. Initial experiments treating the hSTING CTD with femtomolar concentrations of CXL were unsuccessful, likely due to the insensitivity of the instrument. […]. MicroCal ITC200 instrument (Malvern Pananalytical) was used to assess STING and CXL interactions. Both recombinantly purified STING domains (residues 155–343) containing a SUMO tag and CXL were buffer-exchanged and made in the same buffer composition, respectively, to avoid buffer mismatch. The same buffer cocktail was used in all ITC experiments, containing 25 mM HEPES (pH, 7.4), 150 mM NaCl, 5% glycerol, 0.5 mM TCEP, and 5% DMSO. STING protein from −80 °C aliquots was spun down at 12,000 RPM for 5–10 min before each run to remove any aggregates, diluted into the ITC buffer above (either as 40 μM STING alone or as 40 μM STING plus 20 μM 2,3-cGAMP), and loaded into the cell. CXL at various concentrations for different experiments was loaded into the syringe (Hamilton). For the control and reference, an ITC buffer devoid of CXL was used. ITC experiments were conducted at 25 °C using an initial 0.4 μL injection and 19 subsequent injections of 2 μL each at 150 s intervals. Heat of dilution (differential power) of the 19 injections resulting from the binding event was fitted into the nonlinear least-squares equation incorporated in the MicroCal ITC200 analysis software. The K D and other thermodynamic parameters were derived from curve fitting using MicroCal software.

hSTING CTD = test: Differential scanning fluorimetry (thermal shift); format: binding, human; details: 200 μM
Excerpt: Differential Scanning Fluorimetry – Thermal Shift Experiment
screening process for their potential to stabilize the active form of the STING molecule by binding to it. A TSA measures a protein's melting temperature (Tm), at which the protein is 50% denatured. The assay quantifies protein denaturation by measuring the increase in fluorescence of a dye that binds to hydrophobic residues exposed by unfolding of the protein.
Differential Scanning Fluorimetry (Thermal Shift) for Binders of STING.
Compounds selected (57) from computational virtual screening for analysis at 200 μM in the thermal shift assay are
shown here as green dots with blue diamond indicating the temperature range of denaturation. The red box indicates

SUMO-hSTING CTD [4] = molecular target: T1, SUMO-hSTING CTD; test: Dynamic light scattering of STING oligomerization
Procedure: (B) DLS was performed for 2 h (n = 960 measurements) with 50 nM STING exposed to analytes. […] Blue blocks indicate size counts as a percentage to overall mass over selected mass ranges. […] Measurements were made using a Malvern Zetasizer Nano ZS set to 40 measurements at 1 s/measurement and 24 runs.

[5] = Hydrolysis of clonixeril to clonixin by HPLC; format: physicochemical
Procedure: To determine clonixeril’s hydrolytic stability and evaluate its potential as an oral drug, an aqueous solution was concentrated for analysis at 20 µM. The sample was analyzed by HPLC using an […]
The UV spectra of these peaks were compared by diode array and found to be identical with maximum absorbance at 280nm and 343nm. […]
the minor first peak matched the molecular weight of clonixin (M+H)+ and the second major peak matched the molecular weight of clonixeril (M+H)+. Data was generated by measuring the ratio between the two peaks. Hydrolysis of clonixeril to clonixin was measured by HPLC over seven days using a 20 µM aqueous solution.
96.8% clonixeril (Figure S4B). Most of the hydrolysis occurred within the first two days at an average rate of […], and then slowed down to an average rate of 0.07% per hour by day seven (Figure S4B). The rate decrease correlated with an observable decrease in solution pH as a product of hydrolysis. Further samples solubilized in pH 2.00 phosphoric acid and pH 1.99 hydrochloric acid confirmed that the rate decreases to an average of 0.014% per hour over […]
a seven-day period. […]

[6] = test system: hSTING phosphorylation (p-hSTING) in HEK293 cells; test: HEK293 pSTING Western blot with 2′,3′-cGAMP; format: cell-based, human
Procedure: Since phosphorylation of Ser366 of hSTING is a necessary step to initiate recruitment, subsequent docking, and phosphorylation of IRF3, we investigated whether CXL would affect hSTING phosphorylation levels in cellulo. Thus, HEK293 cells were treated with varying concentrations of CXL (1fM-1nM) for one hour prior to 2 μM 2′,3′-cGAMP treatment for 90 min (Figure A) or 2 h (Figure C). An optimized dose of 2 μM 2′,3′-cGAMP was based on a dose–response study done for this experiment. A control group was treated with vehicle for 1 h followed by 2 μM 2′,3′-cGAMP for 1 or 2 h (Figure C) Total protein lysates were collected and analyzed by Western blotting using antibodies against p-hSTING, hSTING, and β-actin.
HEK293 cells were seeded at 700,000 cells per 60 mm plate confluency and treated 36 h later. […] Vehicle control group was treated with Escort IV reagent and DMSO for 1 h prior to 2 μM 2′,3′-cGAMP (InvivoGen) for 1 h and 30 min using Escort IV transfection reagent. DMSO concentration was kept constant across all treatment groups. Total cell lysates were collected and analyzed by Western blotting using antibodies against p-STING, STING, and β-actin. […] Data points were analyzed with a one-way ANOVA test using PRISM9 statistical analysis software (GraphPad). A level of p < 0.05 was considered statistically significant.

hSTING = hSTING (Homo sapiens, UniProt Q86WV6, H232R); test: Summary of interaction of CXL with hSTING in vitro and in cellulo; details: read-out: EC50, first mode of interaction with hSTING

T1 sequence (Q86WV6 155-343 H232R): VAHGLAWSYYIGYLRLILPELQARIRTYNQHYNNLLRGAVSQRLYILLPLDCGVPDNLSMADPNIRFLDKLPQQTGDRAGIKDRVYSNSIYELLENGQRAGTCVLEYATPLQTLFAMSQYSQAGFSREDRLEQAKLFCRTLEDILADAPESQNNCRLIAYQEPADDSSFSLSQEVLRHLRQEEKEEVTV

Heat released per injection (SUMO-hSTING CTD [3]; 400 μM clonixeril + 20 μM 2′,3′-cGAMP, reviewer's reading of Fig 6C): 13 kcal/mol
Heat evolution (SUMO-hSTING CTD [3]; 1.5 fM CXL into 40 μM SUMO-hSTING CTD + 20 μM 2′,3′-cGAMP): significant evolution of heat
Heat released per injection (SUMO-hSTING CTD [3]; 1.5 fM clonixeril into 40 μM hSTING CTD + 20 μM 2′,3′-cGAMP, first 15 injections): -7 to -2 kcal/mol
Lowest concentration at which effect on oligomerization is observed (SUMO-hSTING CTD [4]; 50 nM STING, 50 nM 2′,3′-cGAMP): 100 aM
SUMO-hSTING CTD oligomerization without 2′,3′-cGAMP present (SUMO-hSTING CTD [4]; 50 nM STING, analyte alone): moderate amount of oligomerization
Size of protein aggregates (SUMO-hSTING CTD [4]; 100 aM, 50 nM STING CTD, reviewer's reading): about 75 nm
Initial hydrolysis, clonixeril ([5]; 20 µM aqueous solution): 96.8%
Initial hydrolysis, clonixin ([5]; 20 µM aqueous solution): 3.2%
Initial hydrolysis, clonixeril ([5]; 5% sodium bicarbonate): 88.2%
Initial hydrolysis, clonixin ([5]; 5% sodium bicarbonate): 11.8%
Average rate of hydrolysis ([5]; aqueous solution, by day seven): 0.07 % per hour
Average rate of hydrolysis ([5]; aqueous solution, first two days): 0.13 % per hour
Average rate of hydrolysis ([5]; pH 2.00 phosphoric acid and pH 1.99 hydrochloric acid, seven-day period): 0.014 % per hour
Hydrolysis ([5]; pH of 1.0): relatively slow hydrolysis
Hydrolysis ([5]; pH=2.0): surprisingly slow
EC50 (hSTING): > 1 nM
SMILES: Cc1c(Cl)cccc1Nc1ncccc1C(=O)OCC(O)CO (stereo not drawn) [CXL, clonixeril]
Effect on p-IRF3 [1]: potent antagonistic behavior
Antagonism of hSTING pathway in luciferase reporter assay ([2]; compound 1 h, then 4 μM 2′,3′-cGAMP): inverse dose response; also recorded: antagonism of the hSTING^WT pathway
Concentration of maximum inhibition ([2]; reviewer's summary of IRF3 reporter assay): 100 aM
Heat produced (SUMO-hSTING CTD [3]; 400 μM CXL into 40 μM hSTING CTD): essentially the same amount of heat as c-diGMP
Thermal shift (hSTING CTD): negative thermal shift
Reduction in 2′,3′-cGAMP driven SUMO-hSTING CTD oligomerization (SUMO-hSTING CTD [4]; 50 nM STING, 50 nM 2′,3′-cGAMP): alters the ability of SUMO-hSTING CTD to oligomerize
Effect on hSTING phosphorylation, CXL prior to 2′,3′-cGAMP ([6]; CXL 1 fM-1 nM 1 h, then 2 μM 2′,3′-cGAMP): downregulated hSTING phosphorylation close to near basal cellular levels
Effect on hSTING phosphorylation, 2′,3′-cGAMP prior to CXL ([6]; same concentration range): inhibitory activity was not observed
